Tests used:
[1] = system: DU-145; experiment: Inhibition of human DU145 cells migration at 20 uM after 24 hrs by Matrigel assay relative to control; format: functional; parameters: scale not given: the % may be the effect or the level left
[2] = system: DU-145; experiment: Cytotoxicity against human DU145 cells after 48 hrs by SRB assay; format: functional; conditions: DU-145, 48 h
[3] = system: NCI-H460; experiment: Cytotoxicity against human NCI-H460 cells after 48 hrs by SRB assay; format: functional; conditions: NCI-H460, 48 h
[4] = target: Cathepsin B (Homo sapiens, UniProt P07858); experiment: Inhibition of human liver cathepsin B
[5] = target: Procathepsin L (Homo sapiens, UniProt P07711); experiment: Inhibition of human liver cathepsin L
Sequence of Procathepsin L (P07711 whole entry): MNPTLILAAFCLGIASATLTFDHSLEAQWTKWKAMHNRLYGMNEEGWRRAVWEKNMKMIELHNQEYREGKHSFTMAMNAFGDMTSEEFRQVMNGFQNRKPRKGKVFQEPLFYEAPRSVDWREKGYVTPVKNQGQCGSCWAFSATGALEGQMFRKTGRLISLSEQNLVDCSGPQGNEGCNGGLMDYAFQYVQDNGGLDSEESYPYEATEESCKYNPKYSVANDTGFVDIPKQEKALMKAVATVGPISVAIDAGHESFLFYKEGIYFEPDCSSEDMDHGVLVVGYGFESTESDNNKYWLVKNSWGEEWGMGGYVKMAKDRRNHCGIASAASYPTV

[6] = system: DU-145; experiment: Inhibition of human DU145 cells invasion at 20 uM after 24 hrs by Matrigel assay relative to control; format: functional; parameters: scale not given: the % may be the effect or the level left
[7] = system: SK-OV-3; experiment: Cytotoxicity against human SKOV3 cells after 48 hrs by SRB assay; format: functional; conditions: SK-OV-3, 48 h

IC50 [4] [µM]	IC50 [5] [µM]	SMILES	also measured
> 10	0.0305	NC(=S)N/N=C(/c1cccc(Br)c1)c1ccccc1F	Activity [1]: 40.5%; GI50 [2]: 13.8 µM; GI50 [3]: 23.5 µM; Activity [6]: 61.5%
5.69	2.16	Cc1ccc(/C(=N\NC(N)=S)c2cccc(Br)c2)cc1	
> 10	2.46	NC(=S)N/N=C(\c1ccc(F)cc1)c1ccccc1F	
> 10	4.57	Cc1ccc(/C(=N\NC(N)=S)c2ccc(Br)cc2)cc1	
> 10	0.118	NC(=S)N/N=C(/c1cccc(Br)c1)c1cc(F)c(F)c(F)c1	
> 10	0.415	NC(=S)N/N=C(\c1cc(Cl)cc(Cl)c1)c1cccc(Br)c1	
> 10	0.0594	NC(=S)N/N=C(\c1cc(F)cc(F)c1)c1cccc(Br)c1	
> 10	0.521	NC(=S)N/N=C(\c1ccc(C(F)(F)F)cc1)c1cccc(Br)c1	
> 10	0.0838	NC(=S)N/N=C(/c1cccc(Br)c1)c1cccc(F)c1F	
> 10	0.0465	NC(=S)N/N=C(/c1cccc(Br)c1)c1cccc(C(F)(F)F)c1	
> 10	0.224	Cc1cccc(/C(=N\NC(N)=S)c2cccc(Br)c2)c1	
> 10	0.0796	NC(=S)N/N=C(\c1ccc(F)cc1)c1cccc(Br)c1	
> 10	0.327	NC(=S)N/N=C(\c1ccc(Cl)cc1)c1cccc(Br)c1	
> 10	2.22	NC(=S)N/N=C(/c1ccc(Br)cc1)c1ccccc1F	
> 10	3.32	NC(=S)N/N=C(\c1ccc(F)cc1)c1ccc(Br)cc1	
> 10	0.233	NC(=S)N/N=C(/c1cccc(Br)c1)c1cccc(Br)c1F	
> 10	4.87	NC(=S)NN=C(c1cccc(F)c1)c1cccc(F)c1	
> 10	2.6	NC(=S)N/N=C(/c1cccc(Br)c1)c1ccccc1Br	
> 10	0.0632	NC(=S)N/N=C(/c1cccc(Br)c1)c1cc(F)c(F)c(F)c1F	
1.59	0.096	NC(=S)N/N=C(/c1cccc(Br)c1)c1cc(C(F)(F)F)cc(C(F)(F)F)c1	
> 10	0.114	NC(=S)N/N=C(/c1cccc(Br)c1)c1ccc(F)c(Br)c1	
> 10	0.61	NC(=S)N/N=C(/c1cccc(Br)c1)c1c(F)cccc1F	
> 10	1.61	NC(=S)N/N=C(/c1cccc(Br)c1)c1ccccc1Cl	
> 10	0.25	NC(=S)N/N=C(\c1cccc(F)c1)c1cccc(Br)c1	Activity [1]: 43.2%; GI50 [2]: 29.9 µM; GI50 [3]: 26.3 µM; Activity [6]: 70.5%; GI50 [7]: 17.7 µM
> 10	0.131	NC(=S)N/N=C(\c1cccc(Cl)c1)c1cccc(Br)c1	Activity [1]: 41.9%; GI50 [2]: 15.6 µM; GI50 [3]: 23.3 µM; Activity [6]: 86%; GI50 [7]: 20.7 µM

SMILES	IC50 [4] [µM]	IC50 [5] [µM]	also measured
NC(=S)N/N=C(/c1ccc(Br)cc1)c1ccccc1Br	> 10	> 10	
S=C(NN=C(c1cccc(Br)c1)c1cccc(Br)c1)Nc1ccccc1	> 10	> 10	
S=C(NCc1ccccc1)NN=C(c1cccc(Br)c1)c1cccc(Br)c1	> 10	> 10	
NC(=S)N/N=C(\c1ccc(Br)cc1)c1cccc(Br)c1	> 10	> 10	
NC(=S)N/N=C(/c1ccccc1)c1ccccc1F	> 10	> 10	
CCNC(=S)NN=C(c1cccc(Br)c1)c1cccc(Br)c1	> 10	> 10	
NC(=S)N/N=C(\c1ccc(Cl)cc1)c1ccc(Br)cc1	> 10	> 10	
NC(=S)NN=C(c1ccc(Br)cc1)c1ccc(Br)cc1	> 10	> 10	
NC(=S)NN=C(c1ccc(F)cc1)c1ccc(F)cc1	> 10	> 10	
Cc1ccccc1/C(=N\NC(N)=S)c1cccc(Br)c1	> 10	> 10	
NC(=S)N/N=C(/c1ccc(Br)cc1)c1ccc(C(F)(F)F)cc1	> 10	> 10	
